Laboratory results published in ChEMBL document CHEMBL2331314, “Dorsamin-A's, glycerolipids carrying a dehydrophenylalanine ester moiety from the seed-eating larvae of the bruchid beetle Bruchidius dorsalis” (J Nat Prod, 2013).

Assay: Antioxidant activity assessed as concentration required to 50 % ABTS radical scavenging activity absorbance at 734 nm
Assay type: functional
Molecule `CCCCCCCC/C=C/CCCCCCCC(=O)OC[C@H](COC(=O)/C(N)=C/c1ccccc1)OC(=O)CCCCCCC/C=C/CCCCCCCC` has an Activity of 11 µM.
In the case of `COC(=O)/C=C/c1ccccc1`, the Activity is reported as greater than 1000 µM.
In the case of `Cc1c(C)c2c(c(C)c1O)CCC(C)(C(=O)O)O2` (stereo not given), the Activity is reported as 19 µM.
Work on `COC(=O)/C(N)=C/c1ccccc1` yielded an Activity of 9.6 µM.
With `COC(=O)C(=O)Cc1ccccc1` the Activity was 8.8 µM.
